The supplement of paper PMC10307832

Experiments:
Assay in all cases: relative viability (nuclei count vs DMSO), 5 days (fraction); higher = more cells survive
AZ505 + Linsitinib = compound: C1CCC(CC1)N(CCNCCC2=C3C(=C(C=C2)O)NC(=O)CO3)C(=O)CCNCCC4=CC(=C(C=C4)Cl)Cl [AZ505] + C[C@]1(O)C[C@@H](c2nc(-c3ccc4ccc(-c5ccccc5)nc4c3)c3c(N)nccn32)C1 [Linsitinib] (partner 1 µM)
In short: (§1)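 Cells from lung cancer lines were seeded into 1536-well plates and, one day later, dosed by pin tool. Treatments were either a single drug or a fixed dose of an anchor drug with five library-drug doses (not always all listed) in √10 steps. After 5 days, nuclei were stained in a one-step fixation (final 0.05% Triton X-100, 1% formaldehyde, 1 ug/ml Hoechst) and counted on 4× images, and relative viability is the treated-to-vehicle nuclei ratio, as the median of duplicate plates.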

AZ505 + Phenformin = compound: C1CCC(CC1)N(CCNCCC2=C3C(=C(C=C2)O)NC(=O)CO3)C(=O)CCNCCC4=CC(=C(C=C4)Cl)Cl [AZ505] + N=C(N)NC(=N)NCCc1ccccc1 [Phenformin] (partner 250 µM)
In short: as §1

AZ505 + OSI-027 = compound: C1CCC(CC1)N(CCNCCC2=C3C(=C(C=C2)O)NC(=O)CO3)C(=O)CCNCCC4=CC(=C(C=C4)Cl)Cl [AZ505] + COc1cccc2cc(-c3nc([C@H]4CC[C@H](C(=O)O)CC4)n4ncnc(N)c34)[nH]c12 [OSI-027] (partner 0.5 µM)
In short: as §1

Dactolisib + Luminespib = compound: Cn1c(=O)n(-c2ccc(C(C)(C)C#N)cc2)c2c3cc(-c4cnc5ccccc5c4)ccc3ncc21 [Dactolisib] + CCNC(=O)c1noc(-c2cc(C(C)C)c(O)cc2O)c1-c1ccc(CN2CCOCC2)cc1 [Luminespib] (partner 0.01 µM)
In short: as §1

| Cell Line | relative viability (AZ505 + Linsitinib; first compound 0.08 µM) | relative viability (AZ505 + Linsitinib; first compound 0.253 µM) | relative viability (AZ505 + Linsitinib; first compound 0.8 µM) | relative viability (AZ505 + Linsitinib; first compound 2.53 µM) | relative viability (AZ505 + Linsitinib; first compound 8 µM) | relative viability (AZ505 + Phenformin; first compound 0.08 µM) | relative viability (AZ505 + Phenformin; first compound 0.253 µM) | relative viability (AZ505 + Phenformin; first compound 0.8 µM) | relative viability (AZ505 + Phenformin; first compound 2.53 µM) | relative viability (AZ505 + Phenformin; first compound 8 µM) | relative viability (AZ505 + OSI-027; first compound 0.08 µM) | relative viability (AZ505 + OSI-027; first compound 0.253 µM) | relative viability (AZ505 + OSI-027; first compound 0.8 µM) | relative viability (AZ505 + OSI-027; first compound 2.53 µM) | relative viability (AZ505 + OSI-027; first compound 8 µM) | relative viability (Dactolisib + Luminespib; first compound 0.002 µM) | relative viability (Dactolisib + Luminespib; first compound 0.006325 µM) | relative viability (Dactolisib + Luminespib; first compound 0.02 µM) | relative viability (Dactolisib + Luminespib; first compound 0.06325 µM) | relative viability (Dactolisib + Luminespib; first compound 0.2 µM) |
| --- | --- | --- | --- | --- | --- | --- | --- | --- | --- | --- | --- | --- | --- | --- | --- | --- | --- | --- | --- | --- |
| H3255 | 0.836 | 1 | 0.918 | 0.983 | 0.929 | 0.303 | 0.377 | 0.379 | 0.321 | 0.38 | 0.548 | 0.675 | 0.617 | 0.624 | 0.559 | 0.843 | 0.875 | 0.912 | 0.796 | 0.511 |
| 201T | 1.03 | 0.98 | 0.993 | 1.01 | 0.968 | 0.446 | 0.445 | 0.501 | 0.468 | 0.477 | 0.688 | 0.721 | 0.813 | 0.91 | 0.764 | 1.15 | 0.992 | 0.952 | 0.89 | 0.469 |
| NCI-H2126 | 0.681 | 0.724 | 0.721 | 0.711 | 0.68 | 0.466 | 0.537 | 0.491 | 0.526 | 0.538 | 0.601 | 0.6 | 0.689 | 0.751 | 0.779 | 0.803 | 0.868 | 0.809 | 0.334 | 0.296 |
| HOP-62 | 0.932 | 1.03 | 1.08 | 0.863 | 1.08 | 0.63 | 0.797 | 0.67 | 0.725 | 0.784 | 0.708 | 0.838 | 0.801 | 0.895 | 0.826 | 0.983 | 0.812 | 0.888 | 0.543 | 0.561 |
| CAL-12T | 0.72 | 0.901 | 0.684 | 0.748 | 0.9 | 0.473 | 0.531 | 0.553 | 0.525 | 0.649 | 0.545 | 0.548 | 0.667 | 0.645 | 0.834 | 0.477 | 0.128 | 0.117 | 0.142 | 0.12 |
| NCI-H520 | 0.911 | 1.1 | 0.85 | 1.04 | 0.955 | 0.556 | 0.49 | 0.683 | 0.825 | 0.529 | 0.26 | 0.285 | 0.288 | 0.306 | 0.322 | 0.22 | 0.184 | 0.233 | 0.207 | 0.204 |
| NCI-H1755 | 0.968 | 0.984 | 0.924 | 0.985 | 0.974 | 0.615 | 0.592 | 0.663 | 0.639 | 0.688 | 0.763 | 0.73 | 0.643 | 0.742 | 0.691 | 0.298 | 0.399 | 0.418 | 0.417 | 0.359 |
| NCI-H2023 | 0.685 | 0.626 | 0.669 | 0.814 | 0.552 | 0.379 | 0.449 | 0.405 | 0.442 | 0.31 | 0.437 | 0.322 | 0.421 | 0.393 | 0.398 | 0.643 | 0.562 | 0.217 | 0.0703 | 0.0888 |
| NCI-H2009 | 1.1 | 1.22 | 1.12 | 1.11 | 1.15 | 0.387 | 0.486 | 0.468 | 0.506 | 0.442 | 0.615 | 0.591 | 0.582 | 0.539 | 0.59 | 1.14 | 1.05 | 0.89 | 1 | 0.362 |
